Data as given in ChEMBL document CHEMBL3272278, “Electronic factors in the structure-activity relationship of some 1,4-benzodiazepin-2-ones” (1977).
Activity calls are given as the source filed them. The rule behind the calls is not given here.

Tests used:
Assay type in all cases: functional
Mus musculus [1] = species on record: Mus musculus; experiment: Sedative activity in mouse
Mus musculus [2] = species on record: Mus musculus; experiment: Anticonvulsion activity in mouse assessed as protection against pentylenetetrazole-induced convulsion
Mus musculus [3] = species on record: Mus musculus; experiment: Taming activity in mouse assessed as suppression of electrical current-induced aggressive behavior by foot-shock test
Mus musculus [4] = species on record: Mus musculus; experiment: Muscle relaxant activity in mouse
Felis catus = species on record: Felis catus; experiment: Muscle relaxant activity in cat suspended by scruff of neck assessed as relaxation of body and hind legs

Row | SMILES | Activity (Mus musculus [1]) | log(1/ED50) (Mus musculus [2]) | Activity (Mus musculus [3]) | Activity (Mus musculus [4]) | log(1/ED50) (Mus musculus [1]) | log(1/MED) (Felis catus) | log(1/MED) (Mus musculus [3]) | log(1/ED50) (Mus musculus [4]) | ED50 (Mus musculus [2]; Mus musculus) | Activity (Mus musculus [2])
1 | Cc1ccc2c(c1)C(c1ccccc1)=NCC(=O)N2 | inactive | 0.1549 | inactive | inactive | – | – | – | – | – | –
2 | CN1C(=O)CN=C(c2ccccc2F)c2ccccc21 [RO-054520] | – | 1.525 | – | – | 0.1271 | 2.4281 | 0.8261 | 0.1271 | – | –
3 | CSc1ccc2c(c1)C(c1ccccc1)=NCC(=O)N2 | – | 1.1493 | – | – | 0.2073 | 2.1493 | 1.1493 | 0.2073 | – | –
4 | O=C1CN=C(c2ccccc2)c2cc([N+](=O)[O-])ccc2N1 [NITRAZEPAM] | – | 2.7497 | – | – | 1.2726 | 3.4487 | 1.7497 | 1.2726 | – | –
5 | N#Cc1ccc2c(c1)C(c1ccccc1)=NCC(=O)N2 | – | 2.3027 | – | – | 0.5416 | 2.7177 | 0.8146 | 0.5416 | – | –
6 | CN(C)c1ccc2c(c1)C(c1ccccc1Cl)=NCC(=O)N2C | – | 2.8162 | – | – | 0.3391 | 1.9131 | 0.6121 | 0.3391 | – | –
7 | CN1C(=O)CN=C(c2ccccc2)c2cc([N+](=O)[O-])ccc21 [NIMETAZEPAM] | – | 2.6917 | – | – | 1.4698 | 3.4698 | 2.0719 | 1.4698 | – | –
8 | O=C1CN=C(c2ccccc2C(F)(F)F)c2cc([N+](=O)[O-])ccc2N1 | – | 2.6977 | – | – | 0.5428 | 3.5424 | 1.5428 | 0.5428 | – | –
9 | CN1C(=O)CN=C(c2ccccc2F)c2cc([N+](=O)[O-])ccc21 [FLUNITRAZEPAM] | – | 2.4164 | – | – | 2.4955 | 4.1945 | 2.5925 | 2.4955 | – | –
10 | Cc1cc([N+](=O)[O-])cc2c1NC(=O)CN=C2c1ccccc1 | – | 1.5613 | – | – | 1.1688 | 2.7709 | 1.1688 | 1.1688 | – | –
11 | O=C1CN=C(c2ccccc2)c2ccc(C(F)(F)F)cc2N1 | – | – | inactive | – | -0.1703 | – | – | -0.1703 | – | –
12 | O=C1CN=C(c2ccccc2F)c2cc(Br)ccc2N1 | – | 2.8233 | – | – | 1.5223 | 3.8233 | 2.1244 | 1.5223 | – | –
13 | CN1C(=O)CN=C(c2ccccc2Cl)c2cc([N+](=O)[O-])ccc21 [RO-054082] | – | 3.4386 | – | – | 1.0407 | 3.8188 | 2.1198 | 1.0407 | – | –
14 | CSc1ccc2c(c1)C(c1ccccc1)=NCC(=O)N2C | – | 0.5963 | – | – | 0.7724 | 2.4714 | 0.8693 | 0.7724 | – | –
15 | COc1cc2c(cc1Br)C(c1ccccc1)=NCC(=O)N2 | – | 1.6626 | – | – | 0.3616 | – | 0.6346 | 0.3616 | – | –
16 | O=C1CN=C(c2ccccc2F)c2cc([N+](=O)[O-])ccc2N1 | – | 2.4934 | – | – | 1.8736 | 3.7767 | 2.1746 | 1.8736 | 0.3 mg/kg | –
17 | CN1C(=O)CN=C(c2ccccc2)c2cc(Cl)ccc21 [DIAZEPAM] | – | 2.3079 | – | – | 0.9769 | 3.153 | 1.454 | 0.9769 | – | –
18 | N#Cc1ccc2c(c1)C(c1ccccc1F)=NCC(=O)N2 | – | 2.6327 | – | – | 0.5705 | 3.7466 | 1.7466 | 0.5705 | – | –

Row | SMILES | Activity (Mus musculus [1]) | log(1/ED50) (Mus musculus [2]) | Activity (Mus musculus [3]) | Activity (Mus musculus [4]) | log(1/ED50) (Mus musculus [1]) | log(1/MED) (Felis catus) | log(1/MED) (Mus musculus [3]) | log(1/ED50) (Mus musculus [4]) | ED50 (Mus musculus [2]; Mus musculus) | Activity (Mus musculus [2])
19 | CN1C(=O)CN=C(c2ccccc2F)c2cc(Cl)ccc21 [FLUDIAZEPAM] | – | 2.8766 | – | – | 1.4807 | 3.7817 | 1.7817 | 1.4807 | – | –
20 | CS(=O)(=O)c1ccc2c(c1)C(c1ccccc1)=NCC(=O)N2 | inactive | 0.2811 | inactive | inactive | – | – | – | – | – | –
21 | C[S+]([O-])c1ccc2c(c1)C(c1ccccc1)=NCC(=O)N2 (configuration not stated) | – | 1.0764 | inactive | – | 0.2313 | 1.8722 | – | 0.2313 | – | –
22 | Cc1cccc(C2=NCC(=O)Nc3ccc(Cl)cc32)c1 | inactive | 0.8519 | inactive | inactive | – | – | – | – | – | –
23 | O=C1CN=C(c2ccccc2)c2ccc(Cl)cc2N1 | inactive | -0.0917 | inactive | inactive | – | – | – | – | – | –
24 | O=C1CN=C(c2ccccc2[N+](=O)[O-])c2cc([N+](=O)[O-])ccc2N1 | inactive | 2.9691 | – | inactive | – | – | 0.9112 | – | – | –
25 | CN1C(=O)CN=C(c2ccccc2)c2cc(C#N)ccc21 | – | 2.4393 | – | – | 1.1382 | 2.7404 | 1.7404 | 1.1382 | – | –
26 | COc1ccccc1C1=NCC(=O)Nc2ccc(Cl)cc21 | – | 1.6027 | – | – | 0.0007 | 2.4778 | 0.4778 | 0.0007 | – | –
27 | O=C1CN=C(c2ccccc2)c2c(Cl)cccc2N1 | inactive | 0.1311 | inactive | inactive | – | – | – | – | – | –
28 | Cc1cc(C)c2c(c1)C(c1ccccc1)=NCC(=O)N2 | – | – | – | – | -0.2316 | – | 0.4216 | -0.2316 | – | inactive
29 | CCSc1ccc2c(c1)C(c1ccccc1)=NCC(=O)N2 | – | 0.2702 | inactive | – | – | – | – | – | – | –
30 | O=C1CN=C(c2ccccc2)c2cccc([N+](=O)[O-])c2N1 | – | – | inactive | – | -0.2503 | – | – | -0.2503 | – | inactive
31 | COc1cccc(C2=NCC(=O)Nc3ccc(Cl)cc32)c1 | inactive | 2.2225 | inactive | inactive | – | – | – | – | – | –
32 | Cc1cc2c(cc1C)C(c1ccccc1)=NCC(=O)N2 | inactive | 0.2978 | inactive | inactive | – | – | – | – | – | –
33 | CN1C(=O)CN=C(c2ccc(Cl)cc2)c2cc(Cl)ccc21 [RO-54864] | – | – | inactive | – | 0.5037 | – | – | 0.5037 | – | inactive
34 | O=C1CN=C(c2cccc([N+](=O)[O-])c2)c2cc([N+](=O)[O-])ccc2N1 | – | 0.8142 | inactive | – | -0.0888 | – | – | -0.0888 | – | –
35 | COc1ccc(C2=NCC(=O)Nc3ccc(Cl)cc32)cc1 | inactive | -0.4253 | inactive | inactive | – | – | – | – | – | –
